Measured values as given in patent publication US9321790B2, “Pyrimidinone derivatives as antimalarial agents” (SANOFI, priority 2012, dated 2016).
Like-named read-outs stand apart in the source and are kept apart here.

What was measured:
[1] = test system: Plasmodium falciparum (strain NF54); assay: Antimalarial activity test: growth of Plasmodium falciparum in infected human erythrocytes, 3H-hypoxanthine incorporation; format: cell-based; settings: strain NF54 sensitive to chloroquine, 72 h total incubation
Procedure, shortened: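 Chloroquine-sensitive NF54 parasites in human erythrocytes (1.25% hematocrit, 0.15% parasitemia) were grown in hypoxanthine-free RPMI 1640 with HEPES and Albumax II, with compound in twofold serial dilution, at 37 °C under 93% N2/4% CO2/3% O2. After 48 h, 3H-hypoxanthine (0.5 μCi) was added for 24 h. Scintillation counts versus drug-free control gave IC50.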

human PI3Kα = human PI3Kα (Homo sapiens (Human), UniProt P42336); assay: Human PI3Kα activity test (luciferin/luciferase ATP consumption, KinaseGlo); format: biochemical
Protocol: The test uses a luciferin/luciferase system to measure the concentration of ATP and its consumption during the enzymatic reaction.
After 90 minutes, the reaction is quenched by adding 20 μl/well of KinaseGlo reagent (Promega V6713). After 10 minutes in the dark, the luminescence is read using a PHERAStar microplate reader (reading at 0.8 sec/well).

[2] = Plasmodium falciparum, Erythrocyte
[3] = PI3Kα (p110α/p85α), 50 μM PIP2, 2 μM ATP, 90 minutes, read-out: IC50 Human PI3Kα

Chain of human PI3Kα (P42336 whole entry): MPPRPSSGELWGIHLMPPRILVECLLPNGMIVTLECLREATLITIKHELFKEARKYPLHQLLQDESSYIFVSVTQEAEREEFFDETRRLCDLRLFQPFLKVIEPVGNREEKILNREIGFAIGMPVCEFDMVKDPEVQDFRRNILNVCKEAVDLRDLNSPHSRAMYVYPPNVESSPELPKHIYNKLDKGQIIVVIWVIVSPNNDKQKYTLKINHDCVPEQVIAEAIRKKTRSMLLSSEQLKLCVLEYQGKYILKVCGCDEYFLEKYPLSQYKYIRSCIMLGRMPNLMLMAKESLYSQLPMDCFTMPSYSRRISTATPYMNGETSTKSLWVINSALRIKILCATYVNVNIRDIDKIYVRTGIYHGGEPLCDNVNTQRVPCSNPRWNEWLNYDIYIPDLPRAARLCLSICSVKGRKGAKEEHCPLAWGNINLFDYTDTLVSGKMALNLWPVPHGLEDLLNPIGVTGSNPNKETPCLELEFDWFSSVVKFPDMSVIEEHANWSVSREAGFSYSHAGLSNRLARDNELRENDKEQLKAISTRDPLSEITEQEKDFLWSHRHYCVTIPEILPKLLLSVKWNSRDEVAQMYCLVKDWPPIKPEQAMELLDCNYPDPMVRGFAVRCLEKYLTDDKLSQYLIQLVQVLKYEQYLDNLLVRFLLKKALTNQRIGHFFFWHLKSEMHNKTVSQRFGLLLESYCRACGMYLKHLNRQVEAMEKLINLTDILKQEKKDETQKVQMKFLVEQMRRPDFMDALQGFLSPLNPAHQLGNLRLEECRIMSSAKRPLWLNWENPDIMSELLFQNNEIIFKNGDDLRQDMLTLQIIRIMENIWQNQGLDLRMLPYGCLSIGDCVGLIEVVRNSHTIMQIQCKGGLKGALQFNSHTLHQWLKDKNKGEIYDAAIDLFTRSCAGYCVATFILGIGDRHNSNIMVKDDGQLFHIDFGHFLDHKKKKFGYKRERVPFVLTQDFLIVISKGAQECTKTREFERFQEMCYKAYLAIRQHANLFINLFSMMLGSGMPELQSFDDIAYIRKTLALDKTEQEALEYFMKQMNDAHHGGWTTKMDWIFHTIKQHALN
Chain of human PI3Kα (P27986 whole entry partner): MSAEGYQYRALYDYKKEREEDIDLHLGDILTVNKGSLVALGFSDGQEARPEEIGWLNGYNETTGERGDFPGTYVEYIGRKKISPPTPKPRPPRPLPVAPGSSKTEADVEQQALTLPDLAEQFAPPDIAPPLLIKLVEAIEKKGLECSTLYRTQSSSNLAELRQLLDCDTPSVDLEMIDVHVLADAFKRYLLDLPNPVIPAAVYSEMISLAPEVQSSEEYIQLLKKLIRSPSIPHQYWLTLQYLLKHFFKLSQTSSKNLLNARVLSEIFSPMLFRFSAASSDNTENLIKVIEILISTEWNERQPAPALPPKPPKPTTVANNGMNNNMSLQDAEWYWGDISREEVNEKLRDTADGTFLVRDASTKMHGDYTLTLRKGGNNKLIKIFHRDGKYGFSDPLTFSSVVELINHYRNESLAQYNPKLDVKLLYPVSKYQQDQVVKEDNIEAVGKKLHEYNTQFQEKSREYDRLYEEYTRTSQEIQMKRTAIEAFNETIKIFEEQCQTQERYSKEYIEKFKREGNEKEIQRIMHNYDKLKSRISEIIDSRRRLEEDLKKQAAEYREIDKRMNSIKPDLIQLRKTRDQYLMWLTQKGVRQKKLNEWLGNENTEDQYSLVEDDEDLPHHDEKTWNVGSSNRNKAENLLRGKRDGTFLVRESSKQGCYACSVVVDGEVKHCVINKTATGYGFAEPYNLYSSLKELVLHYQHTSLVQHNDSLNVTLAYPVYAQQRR

| Structure (SMILES) | IC50 [1, 2] [nM] | IC50 (human PI3Kα; [3]) [nM] | IC50 [1] [nM] | IC50 (human PI3Kα) [nM] |
| --- | --- | --- | --- | --- |
| O=c1cc(N2C[C@@H]3C[C@H]2CO3)nc2n1CC[C@@H](C(F)(F)F)N2CCC1CCOCC1 [Compound 92, (8S)-2-(1S,4S)-2-oxa-5-azabicyclo[2.2.1]hept-5-yl-9-[2-(tetrahydropyran-4-yl)ethyl]-8-trifluoromethyl-6,7,8,9-tetrahydropyrimido[1,2-a]pyrimidin-4-one] | 4 | 450 |  |  |
| O=c1cc(N2C[C@@H]3C[C@H]2CO3)nc2n1CC[C@@H](C(F)(F)F)N2CC1CCOCC1 [Compound 93, (8S)-2-(1S,4S)-2-oxa-5-azabicyclo[2.2.1]hept-5-yl-9-(tetrahydropyran-4-ylmethyl)-8-trifluoromethyl-6,7,8,9-tetrahydropyrimido[1,2-a]pyrimidin-4-one] | 4 | 780 |  |  |
| CC(=O)N1CCC(CN2c3nc(N4C[C@@H]5C[C@H]4CO5)cc(=O)n3CC[C@H]2C(F)(F)F)CC1 [Compound 94, (8S)-9-(1-Acetylpiperid-4-ylmethyl)-2-(1S,4S)-2-oxa-5-azabicyclo[2.2.1]hept-5-yl-8-trifluoromethyl-6,7,8,9-tetrahydropyrimido[1,2-a]pyrimidin-4-one] | 9 | 130 |  |  |
| O=CN1CCC(CN2c3nc(N4C[C@@H]5C[C@H]4CO5)cc(=O)n3CC[C@H]2C(F)(F)F)CC1 [Compound 95, 4-((2S)-8-(1S,4S)-2-oxa-5-azabicyclo[2.2.1]hept-5-yl-6-oxo-2-trifluoromethyl-3,4-dihydro-2H,6H-pyrimido[1,2-a]pyrimidin-1-ylmethyl)piperidine-1-carbaldehyde] | 7 | 180 |  |  |
| O=c1cc(N2C[C@@H]3C[C@H]2CO3)nc2n1CC[C@@H](C(F)(F)F)N2CC(O)(C(F)(F)F)C(F)(F)F [Compound 96, (8S)-2-(1S,4S)-2-oxa-5-azabicyclo[2.2.1]hept-5-yl-9-(3,3,3-trifluoro-2-hydroxy-2-trifluoromethylpropyl)-8-trifluoromethyl-6,7,8,9-tetrahydropyrimido[1,2-a]pyrimidin-4-one] | 170 | 8500 |  |  |
| O=c1cc(N2C[C@@H]3C[C@H]2CO3)nc2n1CC[C@@H](C(F)(F)F)N2CCC(O)(C(F)(F)F)C(F)(F)F [Compound 97, (8S)-2-(1S,4S)-2-Oxa-5-azabicyclo[2.2.1]hept-5-yl-9-(4,4,4-trifluoro-3-hydroxy-3-trifluoromethylbutyl)-8-trifluoromethyl-6,7,8,9-tetrahydropyrimido[1,2-a]pyrimidin-4-one] |  | 440 | 30 |  |
| O=C(CN1c2nc(N3C[C@@H]4C[C@H]3CO4)cc(=O)n2CC[C@H]1C(F)(F)F)N1CC2CCC(C1)O2 [Compound 98, (8S)-2-(1S,4S)-2-Oxa-5-azabicyclo[2.2.1]hept-5-yl-9-[2-(8-oxa-3-azabicyclo[3.2.1]oct-3-yl)-2-oxoethyl]-8-trifluoromethyl-6,7,8,9-tetrahydropyrimido[1,2-a]pyrimidin-4-one] |  | > 10000 | 140 |  |
| O=C(CN1c2nc(N3C[C@@H]4C[C@H]3CO4)cc(=O)n2CC[C@H]1C(F)(F)F)N1C2CCC1COC2 [Compound 99, (8S)-2-(1S,4S)-2-oxa-5-azabicyclo[2.2.1]hept-5-yl-9-[2-(3-oxa-8-azabicyclo[3.2.1]oct-8-yl)-2-oxoethyl]-8-trifluoromethyl-6,7,8,9-tetrahydropyrimido[1,2-a]pyrimidin-4-one] | 170 |  |  | > 10000 |
| O=c1cc(N2C[C@@H]3C[C@H]2CO3)nc2n1CC[C@@H](C(F)(F)F)N2CCC1(O)CCCC1 [Compound 100, (8S)-9-[2-(1-Hydroxycyclopentyl)ethyl]-2-(1S,4S)-2-oxa-5-azabicyclo[2.2.1]hept-5-yl-8-trifluoromethyl-6,7,8,9-tetrahydropyrimido[1,2-a]pyrimidin-4-one] | 9 | 1980 |  |  |
| O=c1cc(N2C[C@@H]3C[C@H]2CO3)nc2n1CC[C@@H](C(F)(F)F)N2CC1(O)CCCC1 [Compound 101, (8S)-9-(1-Hydroxycyclopentylmethyl)-2-(1S,4S)-2-oxa-5-azabicyclo[2.2.1]hept-5-yl-8-trifluoromethyl-6,7,8,9-tetrahydropyrimido[1,2-a]pyrimidin-4-one] | 10 | 450 |  |  |
| O=c1cc(N2C[C@@H]3C[C@H]2CO3)nc2n1CC[C@@H](C(F)(F)F)N2CCC(O)(C1CC1)C1CC1 [Compound 102, (8S)-9-(3,3-Dicyclopropyl-3-hydroxypropyl)-2-(1S,4S)-2-oxa-5-azabicyclo[2.2.1]hept-5-yl-8-trifluoromethyl-6,7,8,9-tetrahydropyrimido[1,2-a]pyrimidin-4-one] | 5 | 2500 |  |  |
| O=c1cc(N2C[C@@H]3C[C@H]2CO3)nc2n1CC[C@@H](C(F)(F)F)N2CC(O)(C1CC1)C1CC1 [Compound 103, (8S)-9-(2,2-Dicyclopropyl-2-hydroxyethyl)-2-(1S,4S)-2-oxa-5-azabicyclo[2.2.1]hept-5-yl-8-trifluoromethyl-6,7,8,9-tetrahydropyrimido[1,2-a]pyrimidin-4-one] | 75 | 840 |  |  |
| O=c1cc(N2C[C@@H]3C[C@H]2CO3)nc2n1CC[C@@H](C(F)(F)F)N2CC1(O)CC1 [Compound 104, (8S)-9-(1-hydroxycyclopropylmethyl)-2-(1S,4S)-2-oxa-5-azabicyclo[2.2.1]hept-5-yl-8-trifluoromethyl-6,7,8,9-tetrahydropyrimido[1,2-a]pyrimidin-4-one] | 12 | 930 |  |  |
| O=c1cc(N2C[C@@H]3C[C@H]2CO3)nc2n1CC[C@@H](C(F)(F)F)N2CCC1(O)CC1 [Compound 105, (8S)-9-[2-(1-Hydroxycyclopropyl)ethyl]-2-(1S,4S)-2-oxa-5-azabicyclo[2.2.1]hept-5-yl-8-trifluoromethyl-6,7,8,9-tetrahydropyrimido[1,2-a]pyrimidin-4-one] | 24 | 1900 |  |  |
| O=c1cc(N2C[C@@H]3C[C@H]2CO3)nc2n1CC[C@@H](C(F)(F)F)N2Cc1cccc2ncccc12 [Compound 106, (8S)-2-(1S,4S)-2-oxa-5-azabicyclo[2.2.1]hept-5-yl-9-quinolin-5-ylmethyl-8-trifluoromethyl-6,7,8,9-tetrahydropyrimido[1,2-a]pyrimidin-4-one] | 13 | > 10000 |  |  |
| Cc1nscc1C(=O)CN1c2nc(N3C[C@@H]4C[C@H]3CO4)cc(=O)n2CC[C@H]1C(F)(F)F [Compound 107, (8S)-9-[2-(3-Methylisothiazol-4-yl)-2-oxoethyl]-2-(1S,4S)-2-oxa-5-azabicyclo[2.2.1]hept-5-yl-8-trifluoromethyl-6,7,8,9-tetrahydropyrimido[1,2-a]pyrimidin-4-one] | 100 | > 10000 |  |  |
| CS(=O)(=O)c1ccc(C(=O)CN2c3nc(N4C[C@@H]5C[C@H]4CO5)cc(=O)n3CC[C@H]2C(F)(F)F)cc1 [Compound 108, (8S)-9-[2-(4-Methanesulfonylphenyl)-2-oxoethyl]-2-(1S,4S)-2-oxa-5-azabicyclo[2.2.1]hept-5-yl-8-trifluoromethyl-6,7,8,9-tetrahydropyrimido[1,2-a]pyrimidin-4-one] | 86 | > 10000 |  |  |
| O=c1cc(N2C[C@@H]3C[C@H]2CO3)nc2n1CC[C@@H](C(F)(F)F)N2Cc1cccc2cnccc12 [Compound 109, (8S)-9-Isoquinolin-5-ylmethyl-2-(1S,4S)-2-oxa-5-azabicyclo[2.2.1]hept-5-yl-8-trifluoromethyl-6,7,8,9-tetrahydropyrimido[1,2-a]pyrimidin-4-one] | 79 | 7800 |  |  |
| O=C(CN1c2nc(N3C[C@@H]4C[C@H]3CO4)cc(=O)n2CC[C@H]1C(F)(F)F)N1CCOCC1 [Compound 110, (8S)-9-(2-Morpholin-4-yl-2-oxoethyl)-2-(1S,4S)-2-oxa-5-azabicyclo[2.2.1]hept-5-yl-8-trifluoromethyl-6,7,8,9-tetrahydropyrimido[1,2-a]pyrimidin-4-one] | 330 | > 10000 |  |  |
| O=c1cc(N2C[C@@H]3C[C@H]2CO3)nc2n1CC[C@@H](C(F)(F)F)N2CCc1ccc(OCCN2CCOCC2)cc1 [Compound 111, (8S)-9-{2-[4-(2-Morpholin-4-ylethoxy)phenyl]ethyl}-2-(1S,4S)-2-oxa-5-azabicyclo[2.2.1]hept-5-yl-8-trifluoromethyl-6,7,8,9-tetrahydropyrimido[1,2-a]pyrimidin-4-one] | 5 | 330 |  |  |
| CON(C)C(=O)CN1c2nc(N3C[C@@H]4C[C@H]3CO4)cc(=O)n2CC[C@H]1C(F)(F)F [Compound 112, N-Methoxy-N-methyl-2-((S)-8-(1S,4S)-2-oxa-5-azabicyclo[2.2.1]hept-5-yl-6-oxo-2-trifluoromethyl-3,4-dihydro-2H,6H-pyrimido[1,2-a]pyrimidin-1-yl)acetamide] |  | > 10000 | 200 |  |
| O=C(CN1c2nc(N3C[C@@H]4C[C@H]3CO4)cc(=O)n2CC[C@H]1C(F)(F)F)c1ccc2nccn2c1 [Compound 113, (8S)-9-(2-Imidazo[1,2-a]pyrid-6-yl-2-oxoethyl)-2-(1S,4S)-2-oxa-5-azabicyclo[2.2.1]hept-5-yl-8-trifluoromethyl-6,7,8,9-tetrahydropyrimido[1,2-a]pyrimidin-4-one] | 430 | > 10000 |  |  |
| O=C(CN1c2nc(N3C[C@@H]4C[C@H]3CO4)cc(=O)n2CC[C@H]1C(F)(F)F)c1ccc(OC(F)F)nc1 [Compound 114, (S)-9-[2-(6-difluoromethoxypyrid-3-yl)-2-oxoethyl]-2-(1S,4S)-2-oxa-5-azabicyclo[2.2.1]hept-5-yl-8-trifluoromethyl-6,7,8,9-tetrahydropyrimido[1,2-a]pyrimidin-4-one] | 245 | > 10000 |  |  |
